Data on 1 compound can be found in US8846703B2, “Crystal of a free tricyclic pyrazolopyrimidine derivative” (Daiichi Sankyo Company, Limited, priority 2010, dated 2014).

The subject of test [1] is human breast cancer cell line SK-BR-3. Description: Cell growth inhibition assay (MTT), SK-BR-3. The class given is cell-based. The conditions noted are these: SK-BR-3 cells, 72 hours, read-out: GI50 value (50% growth inhibitory concentration). Here is the method: (§1) A cell growth inhibition assay was performed using two types of cells (human breast cancer cell line SK-BR-3 and human lung cancer cell line NCI-H460).
(§2) Cells of each type were suspended in a medium and seeded into a 96-well multi-well plate at 2000 cells/150 μL/well in the case of SK-BR-3 and at 500 cells/150 μL/well in the case of NCI-H460. Compound (I) was dissolved in DMSO, and this was diluted with medium to prepare a sample solution (DMSO concentration: 0.5% or less). On the day following the seeding, 50 μL of DMSO-containing medium to which the test compound was not added (hereinafter called DMSO diluted solution; DMSO concentration: 0.5% or less) or 50 μL of the sample solution was further added to the cells. An MTT assay was performed immediately after and 72 hours after adding the sample solution or the DMSO diluted solution to the cells. The MTT assay was performed as follows.
(§3) 5 mg/mL of an MTT (3-(4,5-dimethylthiazol-2-yl)-2,5-diphenyltetrazolium bromide) solution was added at 20 μL per well. Thereafter, the plate was incubated at 37° C. in 5% CO2 for four hours. The plate was centrifuged at 1200 rpm for five minutes, and then the culture supernatant was removed by suction using a dispenser. DMSO was added at 150 μL per well, and the generated formazan was dissolved. […] The absorbance of each well was measured using a plate reader at an OD of 540 nm with a reference of 660 nm. […]

In test [2] the test system is human lung cancer cell line NCI-H460. The experiment in a line: Cell growth inhibition assay (MTT), NCI-H460. The class given is cell-based. The note with it: NCI-H460 cells, 72 hours, read-out: GI50 value (50% growth inhibitory concentration). The protocol: as §1, §2, §3

For the compound `CNC(=O)CC1=Cc2nn(Cc3ncc(C)c(OC)c3Cl)c3nc(N)nc(c23)SC1` [Compound (1), 2-{4-amino-2-[(3-chloro-4-methoxy-5-methylpyridin-2-yl)methyl]-2,7-dihydro-6-thia-1,2,3,5-tetraazabenzo[cd]azulen-8-yl}-N-methylacetamide], the GI50 was found to be 13 nM in test [1] and 26 nM in test [2].
